Legend:
[1] = test system: bloodstream-form Trypanosoma brucei; test: Activity against bloodstream-form Trypanosoma brucei (Alamar Blue growth inhibition); format: cell-based, Trypanosoma brucei (strain 427); conditions: for IC50 / IC90: Trypanosoma brucei, bloodstream form; for IC50: concentration that inhibits growth by 50%, read-out: T. brucei IC50; for IC90: concentration that inhibits growth by 90%, read-out: T. brucei IC90; for S.I. (selectivity index): ratio of IC50 values obtained with L6 cells and T. brucei
Procedure: (§1) Bloodstream form T. brucei (strain 427) were cultured at 37 °C in modified Iscove's medium. Trypanocidal activity was assessed by growing parasites in microtiter plates in the presence of various drug concentrations. […] The plates were incubated for 48 hours at 37 °C and 20 μL Alamar Blue was then added to each well. After an additional overnight incubation, the fluorescence was determined using a Gemini fluorescent plate reader (Molecular Devices). Inhibition of growth was calculated by comparison with control values and IC50 and IC90 values were determined in triplicate using linear regression analysis.

T. cruzi epimastigotes = test: Activity against Trypanosoma cruzi epimastigotes (Alamar Blue growth inhibition); format: cell-based, Trypanosoma cruzi (strain CL Brener); conditions: CL Brener
Procedure: as §1, with “Trypanocidal” for “Bloodstream form T. brucei (strain 427) were cultured at 37 °C in modified Iscove's medium. Trypanocidal”, “4 days” for “48 hours”, “28” for “37”, “Blue (Biosource UK Ltd)” for “Blue”, “3 days” for “overnight”

[2] = test system: L. infantum intracellular amastigotes; test: Activity against intracellular L. infantum amastigotes in THP-1 derived macrophages (luciferase); format: cell-based, Leishmania infantum (MHOM/MA/67/ITMAP-263); conditions: Leishmania infantum; for inhibition at 10 µM: THP-1, 72 h, read-out: L. infantum (intracellular amastigotes) % of growth inhibition at 10 μM ± ST DEV
Procedure: Leishmania infantum Luciferase-expressing L. infantum (strain MHOM/MA/67/ITMAP-263) axenic amastigotes were cultured in MAA/20 medium at 37 °C with 5% CO2, as described by Sereno et al. 1998.[26] The parasites were maintained in 5 mL T25 ventilated flasks and subcultured every seven days at a concentration of 1 × 10^6 cells per mL.
The activity against intracellular amastigotes of L. infantum was evaluated using a modified method described by Santarem, Tavares, and Cordeiro-da-Silva (2019).[27] THP-1 cells were differentiated into macrophages using PMA, as previously outlined. The differentiated macrophages were then infected with L. infantum axenic amastigotes expressing episomal luciferase at a macrophage-to-amastigote ratio of 1 : 10 for four hours at 37 °C in a 5% CO2 atmosphere. After this incubation, non-internalized parasites were washed away, and various concentrations of test compounds were added in a final volume of 100 μL. A dose–response curve for miltefosine was included in all assays to serve as a quality control. Each experimental condition was tested in quadruplicate. After 72 hours of incubation, the medium was replaced with 100 μL of PBS, and 25 μL of Glo-lysis buffer from the Steady-Glo Luciferase Assay System (Promega, Madison, WI, USA) was added. The plates were then agitated at 100 rpm for 10 minutes at room temperature. Following this, 30 μL of the Steady-Glo reagent (Promega, Madison, WI, USA) was added, and the mixture was incubated for 15 minutes in the dark under the same conditions. A total of 140 μL from each well was transferred to white-bottom 96-well plates, and luminescence intensity was measured using a Synergy 2 Multi-Mode Reader (Biotek, Winooski, VT, USA). The antileishmanial effect was assessed by comparing the results with those from non-treated infected cells. The IC50 value were determined through non-linear regression analysis using GraphPad Prism version 8.1.1 for Windows (GraphPad Software, San Diego, CA, USA). Results represent the average of at least three independent experiments.

[3] = Cytotoxicity on THP-1-derived macrophages (MTT assay); format: cell-based; conditions: human, THP-1-derived macrophages (PMA-differentiated), value or interval
Procedure: The THP-1 cell line, a human leukemia line (ATCC® TIB-202™), was cultured in RPMI-1640 medium supplemented with 10% heat-inactivated fetal bovine serum (FBS), 2 mM. L-Glutamine, 100 IU mL^−1 penicillin/streptomycin, and 20 mM HEPES. The cells were maintained in a humidified incubator at 37 °C with 5% CO2. Subculturing was performed every three days, using 20 mL of media at a concentration of 2 × 10^5 cells per mL in a T75 flask. All cell culture reagents were purchased from Lonza Bioscience (Morrisville, NC).
The cytotoxicity of the compounds on THP-1-derived macrophages was evaluated using the colorimetric MTT assay (3-(4,5-dimethylthiazol-2-yl)-2,5-diphenyltetrazolium bromide), as described in Magoulas et al. (2021).[28] THP-1 cells were suspended in complete RPMI medium at a density of 1 × 10^6 cells per mL, and 100 μL of this suspension was seeded into each well of a 96-well plate. The cells were differentiated into macrophages by adding 40 ng mL^−1 of phorbol-myristate 13-acetate (PMA, Sigma, Saint Louis, MI, USA) for 24 hours, followed by replacement with fresh medium for an additional 24 hours. Subsequently, the cells were incubated with 100 μL of various compounds, diluted in complete RPMI medium, at concentrations ranging from 100 to 12.5 μM. Each condition was tested in triplicate. After 72 hours of incubation at 37 °C with 5% CO2, the medium was removed, and 200 μL of a 0.5 mg mL^−1 MTT solution, diluted in RPMI, was added to each well. The plates were incubated for an additional 4 hours. Following this incubation, 160 μL of the medium was removed and replaced with 160 μL of 2-propanol. Absorbance was measured at 570 nm using a Synergy 2 Multi-Mode Reader (Biotek, Winooski, VT, USA). Cytotoxicity was determined by presenting the CC50 (the concentration of the drug that reduces cell viability by 50%) interval or by calculating the CC50 value through non-linear regression analysis using GraphPad Prism version 8.1.1 for Windows (GraphPad Software, San Diego, CA, USA). The results represent the average of at least three independent experiments.

O=C(Cc1ccc(C23CC4CC(CC(C4)C2)C3)cc1)NCCn1cnc([N+](=O)[O-])n1 [6b, 2-[4-(1-Adamantyl)phenyl]-N-[2-(3-nitro-1H-1,2,4-triazol-1-yl)ethyl]acetamide]
IC50 [1]: 420 ± 70 nM
IC90 [1]: 1800 ± 200 nM
S.I. (selectivity index) [1]: 72
IC50 (T. cruzi epimastigotes): 200 ± 30 nM
IC90 (T. cruzi epimastigotes): 660 ± 40 nM
inhibition at 10 µM [2]: 50.1 ± 23%
CC50 at 72 h [3]: 50 to 100 µM

O=C(CCc1ccc(C23CC4CC(CC(C4)C2)C3)cc1)NCCn1cnc([N+](=O)[O-])n1 [6c, 3-[4-(1-Adamantyl)phenyl]-N-[2-(3-nitro-1H-1,2,4-triazol-1-yl)ethyl]propanamide]
IC50 [1]: 200 ± 20 nM
IC90 [1]: 320 ± 10 nM
S.I. (selectivity index) [1]: 114
IC50 (T. cruzi epimastigotes): 450 ± 20 nM
IC90 (T. cruzi epimastigotes): 1200 ± 20 nM
inhibition at 10 µM [2]: 47.6 ± 16.3%
CC50 at 72 h [3]: > 100 µM

O=C(Cc1ccc(C23CC4CC(CC(C4)C2)C3)cc1)NCCCn1cnc([N+](=O)[O-])n1 [6e, 2-[4-(1-Adamantyl)phenyl]-N-[3-(3-nitro-1H-1,2,4-triazol-1-yl)propyl]acetamide]
IC50 [1]: 240 ± 10 nM
IC90 [1]: 400 ± 10 nM
S.I. (selectivity index) [1]: 96
IC50 (T. cruzi epimastigotes): 140 ± 10 nM
IC90 (T. cruzi epimastigotes): 270 ± 20 nM
inhibition at 10 µM [2]: 59.5 ± 12%
IC50 ([2]; THP-1 derived macrophages, 72 h, 95% CI in brackets, read-out: L. infantum (intracellular amastigotes) IC50 (μM), 95% CI): 6.93 µM
CC50 at 72 h [3]: 50 to 100 µM
